“Also recorded” adds a separate entry of the source.
Tests used:
adult rats = experiment: inhibitory avoidance (IA) contextual fear memory task, intra-hippocampal injection; assay type: in vivo, rat; details: for avoidance memory (latency) vs vehicle: bilateral intra-hippocampal injection immediately after training
Experimental: FIG. 3. M6P injected into the hippocampus of rats enhances memory: dose-response curve. Experimental timeline is shown above graph. Rats received a bilateral intra-hippocampal injection of vehicle or different doses of IGF-2R.L1 (M6P) (↑) immediately after training in the contextual fear memory task inhibitory avoidance (IA). Memory retention was then tested at 24 hours (T1) and 7 days (T2) after training. Testing measured the latency to enter the compartment in which the animals received a foot shock during training. N=12/group. All data are expressed as the mean (±s.e.m.). Two-way repeated measures analysis of variance (ANOVA) followed by Bonferroni post-hoc tests. *P<0.05, **P<0.01, ***P<0.001. […] In these experiments, adult rats were trained in the inhibitory avoidance (IA) paradigm. In this paradigm the animals learn to avoid a chamber paired with a foot-shock.

[1] = test system: normal (wild type, WT) mice; experiment: novel object recognition (nOR) paradigm in normal (wild type) mice; assay type: in vivo, mouse
Experimental: FIG. 1. Dose-response curve of the effect of M6P, also called IGF2R.L1 (L1) on nOR in normal (wild type, WT) mice. Experimental timeline is shown above graphs. Data are expressed as the mean±s.e.m. N=4 per group. One-way analysis of variance (ANOVA) followed by Bonferroni post-hoc tests. *P<0.05, **P<0.01. WT mice were injected s.c. with vehicle solution or different doses of IGF2R.L1 (L1) 20 min prior to training on nOR. Graphs show percent exploration preference for the novel object compared to the familiar object at testing performed at 4 h and 24 h after training.
(§1) FIG. 2. M6P reverses object recognition memory deficits in a mouse model of Angelman syndrome and enhances memory in WT mice. Experimental timelines are shown above graphs. In all experiments mice received a s.c. injection of vehicle or M6P (↑) 20 min before nOR training or testing. Percent exploration preference for a novel object compared to a familiar object during novel object recognition of WT (Control) and Ube3a−/+(AS) mice injected with vehicle or M6P (labeled as IGF-2R.L1), 20 min before training, tested at 4 h and 24 h after training. N=4/group. All data are expressed as the mean (±s.e.m.). Two-way analysis of variance (ANOVA) followed by Tukey post-hoc tests. *P<0.05, **P<0.01, ***P<0.001.
FIG. 4. An M6P derivative, phosphonate M6P (PnM6P), enhances memory in mice. Experimental timeline is shown above graphs. Mice received a s.c. injection of either vehicle or 850 μg/Kg of phosphonate-M6P (PnM6P) called IGF-2R.L2 (or L2) (↑) 20 min before training. (A) Percent exploration preference for a novel object compared to a familiar object during the nOR paradigm of mice injected with vehicle or L2 20 min before training, and tested at 24 h (Test 1), 5 days (Test 2) and 14 days (Test 3) after training. N=8-10/group. Data are expressed as the % mean±s.e.m. (B). Total time spent exploring both objects during the nOR training session of mice injected with vehicle or L2 20 min before training. N=4 per group. […] Data are expressed in seconds (s). Two-way analysis of variance (ANOVA) followed by Bonferroni post-hoc tests. *P<0.05, **P<0.01, ***P<0.001.
FIG. 5. Comparing M6P (L1) and PnM6P (L2) effects on memory retention: both L1 and L2 similarly enhance nOR in mice. Experimental timeline is shown above graphs. Mice received a s.c. injection of either vehicle or 850 μg/Kg of phosphonate-M6P (PnM6P) called IGF-2R.L2 (or L2) or 850 μg/Kg of M6P (IGF-2R.L1 or L1) (↑) 20 min before training. (A) Percent exploration preference for a novel object compared to a familiar object during the nOR paradigm of mice injected with vehicle, L2 or L1 20 min before training, and tested at 24 h (Test 1), 5 days (Test 2) and 14 days (Test 3) after training. N=4-10/group. Data are expressed as the % mean±s.e.m. (B). Total time spent exploring both objects during the nOR training session of mice injected with vehicle, L2 or L1 20 min before training. N=2-4 per group. […] Data are expressed in seconds (s). Two-way analysis of variance (ANOVA) followed by Bonferroni post-hoc tests. *P<0.05, **P<0.01, ***P<0.001.
FIG. 6. PnM6P (L2) reverses object recognition memory deficits in a mouse model of Angelman syndrome. Experimental timeline is shown above graphs. Mice received a s.c. injection of either vehicle or 850 μg/Kg of phosphonate-M6P (PnM6P) called IGF-2R.L2 (or L2) (↑) 20 min before either training or testing. (A) Percent exploration preference for a novel object compared to a familiar object during the nOR paradigm of wild type (WT served as Control mice) and Ube3a−/+(AS) mice injected with vehicle or L2 before training, and tested at 4 h, 24 h and 5 days (5d) after training. N=4/group. Data are expressed as the % mean±s.e.m. (B). Total time spent exploring the 2 objects during the nOR training session of WT and AS mice injected with vehicle or L2 20 min before training. N=4/per group. […] Data are expressed in seconds (s). […]

Ube3a-/+ (AS) mice = experiment: novel object recognition (nOR) paradigm in mouse model of Angelman syndrome; assay type: in vivo
Experimental: as §1
FIG. 6. PnM6P (L2) reverses object recognition memory deficits in a mouse model of Angelman syndrome. Experimental timeline is shown above graphs. Mice received a s.c. injection of either vehicle or 850 μg/Kg of phosphonate-M6P (PnM6P) called IGF-2R.L2 (or L2) (↑) 20 min before either training or testing. (A) Percent exploration preference for a novel object compared to a familiar object during the nOR paradigm of wild type (WT served as Control mice) and Ube3a−/+(AS) mice injected with vehicle or L2 before training, and tested at 4 h, 24 h and 5 days (5d) after training. N=4/group. Data are expressed as the % mean±s.e.m. (B). Total time spent exploring the 2 objects during the nOR training session of WT and AS mice injected with vehicle or L2 20 min before training. N=4/per group. […] Data are expressed in seconds (s). Two-way analysis of variance (ANOVA) followed by Bonferroni post-hoc tests. *P<0.05, **P<0.01, ***P<0.001.
Specifically, we used the novel object recognition (nOR) paradigm in mice to assess non-aversive episodic memory. In this task, the innate preference for novelty of the rodent is used. During training, the mouse is allowed to explore 2 identical objects. On test day, one of the training objects is replaced with a novel object. Because mice have an innate preference for novelty, if the mouse recognizes the familiar object, it will spend more time at the novel object.

[2] = WT mice, 850 μg/Kg s.c. 20 min before training, tested 14 days after training

| Compound | avoidance memory (latency) vs vehicle (adult rats; retested 6 days later (7 days after training, T2)) | avoidance memory (latency) vs vehicle (adult rats; tested 1 day (24 h, T1) after training) | dose dependence of memory-enhancing effect (adult rats; bilateral intra-hippocampal injection, different doses) | nOR memory (exploration preference for novel object) vs vehicle ([1]; WT control mice, s.c. injection 20 min before training, tested 4 h after training (FIG. 2)) | nOR memory retention vs vehicle ([1]; WT control mice, s.c. injection 20 min before training, tested 24 h after training (FIG. 2)) | nOR memory retention vs vehicle [1, 2] | nOR memory deficit reversal (Ube3a-/+ (AS) mice; s.c. injection 20 min before training, tested 4 h after training (FIG. 2)) | nOR memory retention vs vehicle (Ube3a-/+ (AS) mice; s.c. injection 20 min before training, tested 24 h after training (FIG. 2)) | nOR memory vs vehicle ([1]; WT mice, 850 μg/Kg s.c. 20 min before training, tested 4 h after training (FIG. 6)) | nOR memory retention vs vehicle ([1]; WT mice, 850 μg/Kg s.c. 20 min before training, tested 24 h after training) | nOR memory retention vs vehicle ([1]; WT mice, 850 μg/Kg s.c. 20 min before training, tested 5 days after training) | nOR memory deficit reversal (Ube3a-/+ (AS) mice; 850 μg/Kg s.c. 20 min before training, tested 4 h after training (FIG. 6)) | nOR memory vs vehicle (Ube3a-/+ (AS) mice; 850 μg/Kg s.c. 20 min before training, tested 24 h after training (FIG. 6)) |
| --- | --- | --- | --- | --- | --- | --- | --- | --- | --- | --- | --- | --- | --- |
| O=C[C@@H](O)[C@@H](O)[C@H](O)[C@H](O)COP(=O)(O)O [L1, mannose-6-phosphate] | effect persisted | significant increase in avoidance memory | dose dependent | significant memory enhancement | significantly increased memory retention in both groups | returned to baseline | reversed memory deficits in AS mice | significantly increased memory retention in both groups |  |  |  |  |  |
| COC1OC(CCP(=O)(OCOC(=O)OC(C)C)OCOC(=O)OC(C)C)C(O)C(O)C1O [L2, Methyl 6-Deoxy-6-diisopropyloxycarbonyloxy-methyl-phosphinylmethyl-α-D-mannopyranoside] |  |  |  |  |  | memory enhancement was no longer seen; also recorded: returned to baseline |  |  | enhanced memory | significantly increased memory retention at both timepoints; also recorded: significant memory in both groups | significantly increased memory retention at both timepoints | reversed memory deficits in AS mice | significant memory in both groups |

From US12491203B2, “Use of mannose 6 phosphate and modifications thereof for memory enhancement and reducing memory impairment” (New York University, priority 2018, dated 2025)
